# Measurements taken from patent US8389500B2, “Fused heterocyclic compounds as ion channel modulators” (Gilead Sciences, Inc., priority 2008, dated 2013).
# Target: T1, wild-type human cardiac sodium channel, hNav1.5 (late sodium current) (Homo sapiens, UniProt Q14524)
# T1 construct: host or cells: HEK293
# Experiment: Late INa screening assay (PatchXpress whole cell patch clamp)
# Type: cell-based
# Conditions: 1 μM test compound; HEK293 hNav1.5; late INa generated with 10 μM Tefluthrin (some experiments 50 nM ATX II); read-out: Late INa % blk (1 μM test cmpd)
# Procedure: The late sodium current (Late INa) and peak sodium current (Peak INa) assays are performed on an automated electrophysiology platform, PatchXpress 7000A (MDS Analytical Technologies, Sunnyvale, Calif.), which uses the whole cell patch clamp technique to measure currents through the cell membrane of up to 16 cells at a time. The assay uses an HEK293 (human embryonic kidney) cell line heterologously expressing the wild-type human cardiac sodium channel, hNav1.5, purchased from Millipore (Billerica, Mass.). No beta subunits were coexpressed with the Na channel alpha subunit. Cells are maintained with standard tissue culture procedures and stable channel expression is maintained with 400 μg/ml Geneticin in the culture medium. […] Experiments are carried out at 24-27° C.
# For both the Late INa and Peak INa assays, series resistance compensation is set to 50% and whole-cell compensation is performed automatically. […] Currents through open sodium channels are automatically recorded and stored in the DataXpress2 database (MDS Analytical Technologies, Sunnyvale, Calif.). Analysis is performed using DataXpress2 analysis software and data are compiled in Excel.
# Compound stocks are routinely made in glass vials to 10 mM in dimethyl sulfoxide (DMSO). In some cases, when compounds are not soluble in DMSO, they are made in 100% ethanol. Stocks are sonicated as necessary. The extracellular solution for screening Late INa is composed of: 140 mM NaCl, 4 mM KCl, 1.8 mM CaCl2, 0.75 mM MgCl2, and 5 mM HEPES with pH adjusted to 7.4 using NaOH. The extracellular solution for screening Peak INa is composed of: 20 mM NaCl, 120 mM N-methyl-D glucamine, 4 mM KCl, 1.8 mM CaCl2, 0.75 mM MgCl2, and 5 mM HEPES with pH adjusted to 7.4 using HCl. The intracellular solution used to perfuse the inside of the cells for both the Late INa and Peak INa assays contains: 120 mM CsF, 20 mM CsCl, 5 mM EGTA, 5 mM HEPES and pH adjusted to 7.4 with CsOH. […] The 0Na extracellular solution used at the end of each experiment for the Late INa and Peak INa assays to measure baseline current contains: 140 mM N-methyl-D-glucamine; 4 mM KCl; 1.8 mM CaCl2; 0.75 mM MgCl2; 5 mM HEPES and pH was adjusted to 7.4 with HCl.
# For the Late INa assay, sodium channels are activated every 10 seconds (0.1 Hz) by depolarizing the cell membrane to −20 mV for 250 milliseconds (ms) from a holding potential of −120 mV. In response to a −20 mV voltage step, typical Nav1.5 sodium currents activate rapidly to a peak negative current and then inactivate nearly completely within […].
# All compounds are tested to determine their activity in blocking the late sodium current. Late INa current is generated by adding 10 μM Tefluthrin (pyrethroid) to the extracellular solution while recording Na currents For some experiments, 50 nM ATX II (sea anemone toxin), another late Na activator, was used to generate the late component. […] After establishing the whole cell recording configuration, late INa activators are added to each well 4 times over a 16-17 minute period so that the late component of the Na current reaches a stable value. […] Measurements are made at the end of exposure to the third compound addition and values are normalized to the current level when all Na^+ is removed from the extracellular solution after two additions of ONa-ECF. Results are reported as percent block of late INa
# T1 sequence (Q14524 whole entry): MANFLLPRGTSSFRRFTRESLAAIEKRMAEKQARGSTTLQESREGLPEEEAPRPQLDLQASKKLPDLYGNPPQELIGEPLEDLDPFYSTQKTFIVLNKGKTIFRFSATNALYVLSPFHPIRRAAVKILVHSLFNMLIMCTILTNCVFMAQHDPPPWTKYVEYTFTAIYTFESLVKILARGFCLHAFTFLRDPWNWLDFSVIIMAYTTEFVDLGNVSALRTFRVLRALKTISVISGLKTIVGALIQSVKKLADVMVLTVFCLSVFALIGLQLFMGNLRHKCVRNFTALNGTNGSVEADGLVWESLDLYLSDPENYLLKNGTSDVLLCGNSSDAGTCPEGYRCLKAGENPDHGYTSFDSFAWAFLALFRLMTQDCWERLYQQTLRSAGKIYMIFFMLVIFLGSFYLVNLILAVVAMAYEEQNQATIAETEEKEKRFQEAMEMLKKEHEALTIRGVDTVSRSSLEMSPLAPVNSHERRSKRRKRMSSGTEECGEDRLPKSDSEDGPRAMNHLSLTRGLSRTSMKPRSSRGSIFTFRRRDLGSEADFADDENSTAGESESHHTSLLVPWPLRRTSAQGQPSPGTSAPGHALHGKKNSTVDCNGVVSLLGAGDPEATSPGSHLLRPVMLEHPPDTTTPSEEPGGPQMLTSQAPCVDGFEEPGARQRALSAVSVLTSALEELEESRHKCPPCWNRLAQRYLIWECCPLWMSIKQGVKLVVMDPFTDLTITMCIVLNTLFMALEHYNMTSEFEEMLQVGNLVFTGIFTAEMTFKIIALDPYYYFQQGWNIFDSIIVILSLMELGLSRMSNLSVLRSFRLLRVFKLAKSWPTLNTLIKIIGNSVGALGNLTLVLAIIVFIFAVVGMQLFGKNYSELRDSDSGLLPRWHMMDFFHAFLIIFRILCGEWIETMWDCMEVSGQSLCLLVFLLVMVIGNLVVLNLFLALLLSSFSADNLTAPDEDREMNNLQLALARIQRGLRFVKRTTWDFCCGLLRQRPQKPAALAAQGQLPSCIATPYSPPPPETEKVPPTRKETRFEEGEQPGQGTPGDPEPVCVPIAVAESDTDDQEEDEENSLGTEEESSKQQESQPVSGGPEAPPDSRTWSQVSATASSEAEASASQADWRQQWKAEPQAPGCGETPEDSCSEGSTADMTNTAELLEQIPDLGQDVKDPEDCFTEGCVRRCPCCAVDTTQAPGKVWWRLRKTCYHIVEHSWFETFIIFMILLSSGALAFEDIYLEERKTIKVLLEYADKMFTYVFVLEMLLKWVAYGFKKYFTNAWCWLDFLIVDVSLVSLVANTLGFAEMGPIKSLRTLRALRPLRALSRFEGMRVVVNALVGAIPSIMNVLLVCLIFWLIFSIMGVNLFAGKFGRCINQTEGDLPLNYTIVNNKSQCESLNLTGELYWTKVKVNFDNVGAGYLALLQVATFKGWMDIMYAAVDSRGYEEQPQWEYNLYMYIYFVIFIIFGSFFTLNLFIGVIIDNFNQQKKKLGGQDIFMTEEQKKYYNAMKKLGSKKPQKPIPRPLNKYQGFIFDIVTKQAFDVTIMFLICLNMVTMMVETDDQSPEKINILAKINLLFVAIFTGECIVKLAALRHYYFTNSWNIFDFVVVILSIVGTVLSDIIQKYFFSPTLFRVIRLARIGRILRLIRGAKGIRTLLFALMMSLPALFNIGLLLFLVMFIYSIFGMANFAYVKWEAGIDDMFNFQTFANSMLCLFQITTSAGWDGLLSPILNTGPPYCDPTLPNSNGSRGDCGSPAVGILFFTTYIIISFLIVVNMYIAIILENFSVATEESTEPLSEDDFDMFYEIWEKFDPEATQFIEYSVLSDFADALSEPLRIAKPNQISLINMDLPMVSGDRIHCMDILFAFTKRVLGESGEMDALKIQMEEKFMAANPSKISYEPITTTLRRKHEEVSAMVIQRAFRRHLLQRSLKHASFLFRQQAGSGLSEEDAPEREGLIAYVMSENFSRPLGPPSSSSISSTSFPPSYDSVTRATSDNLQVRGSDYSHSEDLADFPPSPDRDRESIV
row,SMILES,inhibition at 1 µM [%]
1,"CS(=O)(=O)Nc1ccc(-c2cccc(Cl)c2)c(Cl)c1 [PT-053, N-(2,3′-dichlorobiphenyl-4-yl)methanesulfonamide]",29.9
2,"Cc1cc(-c2ccc(Oc3ccccc3)cc2)c(Cl)cc1NS(C)(=O)=O [PT-041, N-(2-chloro-5-methyl-4′-phenoxybiphenyl-4-yl)methanesulfonamide]",45

# Same assay, conditions: 10 μM test compound; HEK293 hNav1.5; late INa generated with 10 μM Tefluthrin (some experiments 50 nM ATX II); read-out: Late INa % blk (10 μM test cmpd)
row,SMILES,inhibition at 10 µM [%]
1,"Cc1cc(N(Cc2ccc(C(=O)O)cc2)S(C)(=O)=O)ccc1-c1ccc(Oc2ccc(F)cc2)cc1 [PT-136, 4-((N-(4′-(4-fluorophenoxy)-2-methylbiphenyl-4-yl)methylsulfonamido)methyl)benzoic acid]",8.8
2,"CS(=O)(=O)Nc1ccc(-c2cccc(Cl)c2)c(Cl)c1 [PT-053, N-(2,3′-dichlorobiphenyl-4-yl)methanesulfonamide]",72.2
3,"CS(=O)(=O)Nc1ccc(-c2cccc([N+](=O)[O-])c2)c(Cl)c1 [PT-054, N-(2-chloro-3′-nitrobiphenyl-4-yl)methanesulfonamide]",41.3
4,"COc1cc(NS(C)(=O)=O)ccc1-c1ccc(Cl)cc1 [PT-032, N-(4′-chloro-2-methoxybiphenyl-4-yl)methanesulfonamide]",42
5,"CS(=O)(=O)Nc1ccc(-c2cc(F)c(F)c(F)c2)c(Cl)c1 [PT-071, N-(2-chloro-3′,4′,5′-trifluorobiphenyl-4-yl)methanesulfonamide]",59.5
6,"CS(=O)(=O)Nc1ccc(-c2ccc(OC(F)(F)F)cc2)c(F)c1 [PT-078, N-[2-fluoro-4′-(trifluoromethoxy)biphenyl-4-yl]methanesulfonamide]",49.1
7,"Cc1cc(NS(=O)(=O)C2CC2)ccc1-c1ccc(C#N)cc1 [PT-150, N-(4′-cyano-2-methylbiphenyl-4-yl)cyclopropanesulfonamide]",22.5
8,"N#Cc1cc(-c2ccc(Oc3ccccc3)cc2)ccc1NS(=O)(=O)C1CC1 [PT-115, N-(3-cyano-4′-phenoxybiphenyl-4-yl)cyclopropanesulfonamide]",61.8
9,"Cc1cc(NS(C)(=O)=O)ccc1-c1ccc(OC(C)C)cc1 [PT-144, N-(4′-isopropoxy-2-methylbiphenyl-4-yl)methanesulfonamide]",44.7
10,"CC(C)Oc1ccc(-c2ccc(NS(=O)(=O)C3CC3)c(-c3nn[nH]n3)c2)cc1 [PT-157, N-(4′-isopropoxy-3-(2H-tetrazol-5-yl)biphenyl-4-yl)cyclopropanesulfonamide]",5.8
11,"CCOC(=O)CN(c1ccc(-c2cccc(OC(F)(F)F)c2)c(OC)c1)S(C)(=O)=O [PT-020, ethyl N-[2-methoxy-3′-(trifluoromethoxy)biphenyl-4-yl]-N-(methylsulfonyl)glycinate]",52.9
12,"COc1cc(NS(C)(=O)=O)ccc1-c1ccc(C(F)(F)F)cc1 [PT-004, N-[2-methoxy-4′-(trifluoromethyl)biphenyl-4-yl]methanesulfonamide]",42.8
13,"CS(=O)(=O)Nc1ccc(-c2cccc(F)c2)c(Cl)c1 [PT-052, N-(2-chloro-3′-fluorobiphenyl-4-yl)methanesulfonamide]",50.1
14,"CS(=O)(=O)Nc1ccc(-c2ccc(OC(F)(F)F)cc2)cc1 [PT-086, N-[4′-(trifluoromethoxy)biphenyl-4-yl]methanesulfonamide]",9.4
15,"Cc1cc(N(Cc2ccc(C(=O)OC(C)(C)C)cc2)S(C)(=O)=O)ccc1-c1ccc(Oc2ccccc2)cc1 [PT-107, tert-butyl 4-{[(2-methyl-4′-phenoxybiphenyl-4-yl)(methylsulfonyl)amino]methyl}benzoate]",21.2
16,"COCCN(c1ccc(-c2ccc(Cl)c(F)c2)c(Cl)c1)S(C)(=O)=O [PT-077, N-(2,4′-dichloro-3′-fluorobiphenyl-4-yl)-N-(2-methoxyethyl)methanesulfonamide]",27.2
17,"CS(=O)(=O)Nc1ccc(-c2ccc(Oc3ccccc3)cc2)cc1 [PT-033, N-(4′-phenoxybiphenyl-4-yl)methanesulfonamide]",15.1
18,"CCOC(=O)CN(c1ccc(-c2cccc(OC(F)(F)F)c2)c(Cl)c1)S(C)(=O)=O [PT-028, ethyl N-[2-chloro-3′-(trifluoromethoxy)biphenyl-4-yl]-N-(methylsulfonyl)glycinate]",62.1

row,SMILES,inhibition at 10 µM [%]
1,"CS(=O)(=O)Nc1ccc(-c2cccc(OC(F)(F)F)c2)cc1OC(F)(F)F [PT-100, N-[3,3′-bis(trifluoromethoxy)biphenyl-4-yl]methanesulfonamide]",-0.7
2,"CS(=O)(=O)Nc1ccc(-c2ccc(C(F)(F)F)cc2)cc1C(=O)O [PT-122, 4-[(methylsulfonyl)amino]-4′-(trifluoromethyl)biphenyl-3-carboxylic acid]",25.4
3,"Cc1cc(N(Cc2ccc(CC(=O)O)cc2)S(=O)(=O)C2CC2)ccc1-c1ccc(Oc2ccccc2)cc1 [PT-133, 2-(4-((N-(2-methyl-4′-phenoxybiphenyl-4-yl)cyclopropanesulfonamido)methyl)phenyl)acetic acid]",34.1
4,"Cc1cc(-c2ccc(Oc3ccccc3)cc2)c(Cl)cc1NS(C)(=O)=O [PT-041, N-(2-chloro-5-methyl-4′-phenoxybiphenyl-4-yl)methanesulfonamide]",59.3
5,"CS(=O)(=O)Nc1ccc(-c2ccc(F)c(F)c2)cc1 [PT-002, N-(3′,4′-difluorobiphenyl-4-yl)methanesulfonamide]",21.8
6,"CS(=O)(=O)N(c1ccc(-c2ccc(Oc3ccccc3)cc2)cc1Cl)C1CCC[C@@H]1O (stereo partly drawn) [PT-066, N-(3-chloro-4′-phenoxybiphenyl-4-yl)-N-[(2S)-2-hydroxycyclopentyl]methanesulfonamide]",33.8
7,"CS(=O)(=O)Nc1ccc(-c2ccc(C(F)(F)F)cc2)c(F)c1 [PT-080, N-[2-fluoro-4′-(trifluoromethyl)biphenyl-4-yl]methanesulfonamide]",66
8,"COC(=O)c1cc(-c2ccc(Oc3ccccc3)cc2)ccc1NS(C)(=O)=O [PT-118, methyl 4-[(methylsulfonyl)amino]-4′-phenoxybiphenyl-3-carboxylate]",40.8
9,"Cc1cc(-c2ccc(Oc3ccccc3)cc2)c(F)cc1N(Cc1ccc(C(=O)O)cc1)S(C)(=O)=O [PT-142, 4-((N-(2-fluoro-5-methyl-4′-phenoxybiphenyl-4-yl)methylsulfonamido)methyl)benzoic acid]",2.7
10,"COP(=O)(O)c1cc(-c2ccc(Oc3ccc(F)cc3)cc2)ccc1NS(C)(=O)=O [PT-159, methyl hydrogen 4′-(4-fluorophenoxy)-4-(methylsulfonamido)biphenyl-3-ylphosphonate]",36.1
11,"CS(=O)(=O)Nc1ccc(-c2ccccc2F)c(Cl)c1 [PT-035, N-(2-chloro-2′-fluorobiphenyl-4-yl)methanesulfonamide]",48.2
12,"CCOC(=O)CN(c1ccc(-c2ccc(Cl)c(F)c2)c(Cl)c1)S(C)(=O)=O [PT-025, ethyl N-(2,4′-dichloro-3′-fluorobiphenyl-4-yl)-N-(methylsulfonyl)glycinate]",60
13,"CS(=O)(=O)Nc1ccc(-c2ccc(F)c(C(F)(F)F)c2)c(Cl)c1 [PT-069, N-[2-chloro-4′-fluoro-3′-(trifluoromethyl)biphenyl-4-yl]methanesulfonamide]",63
14,"CS(=O)(=O)Nc1ccc(-c2ccc(F)cc2)c(Cl)c1 [PT-037, N-(2-chloro-4′-fluorobiphenyl-4-yl)methanesulfonamide]",40.4
15,"CC(C)(C)OC(=O)CN(c1ccc(-c2cccc(OC(F)(F)F)c2)c(F)c1)S(C)(=O)=O [PT-101, tert-butyl N-[2-fluoro-3′-(trifluoromethoxy)biphenyl-4-yl]-N-(methylsulfonyl)glycinate]",72.9
16,"COc1ccc(-c2ccc(NS(C)(=O)=O)cc2Cl)cc1 [PT-051, N-(2-chloro-4′-methoxybiphenyl-4-yl)methanesulfonamide]",27
17,"Cc1cc(NS(C)(=O)=O)ccc1-c1ccc(F)c(F)c1 [PT-057, N-(3′,4′-difluoro-2-methylbiphenyl-4-yl)methanesulfonamide]",35.9
